According to patent US10077241B2 (Janssen Pharmaceutica NV, priority 2014, dated 2018):

How the values were obtained:
[1] = molecular target: T1, TGR5 (NCI-H716 cell line) (Homo sapiens, UniProt Q8TDU6); test: NCI-H716 cAMP Agonist EC50 Determination
T1 sequence (Q8TDU6 1-330): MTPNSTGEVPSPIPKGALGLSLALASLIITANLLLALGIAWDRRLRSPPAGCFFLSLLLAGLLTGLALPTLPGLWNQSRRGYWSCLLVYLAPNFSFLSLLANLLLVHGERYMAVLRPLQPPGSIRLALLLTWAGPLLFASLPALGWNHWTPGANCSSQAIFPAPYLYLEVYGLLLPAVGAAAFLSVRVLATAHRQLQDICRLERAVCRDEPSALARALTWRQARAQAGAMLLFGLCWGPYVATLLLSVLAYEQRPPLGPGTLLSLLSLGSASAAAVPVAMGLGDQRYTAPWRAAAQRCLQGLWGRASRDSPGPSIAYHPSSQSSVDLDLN
Description: Cells were cultured in suspension using RPM containing: 10% HI FBS, and 1× Penn/Strep and were cryostored (1E7 cells/vial in 5% DMSO).
A Normalized signal (NS) is generated by the Envision for each well ((Read 1/Read 2)×10,000).
The data from the Envision were imported to an Excel worksheet. nM cAMP is calculated for each well from the cAMP standard curves located on each plate by first calculating the slope and deriving the intercept (b).
[formula] [formula] [formula] EC50 values were determined from a 4-point fit (Hill equation) of a single 11-point compound dosing.

[2] = molecular target: T2, TGR5 (STC1 cell line) (Mus musculus, UniProt Q80SS6); test: STC1 cAMP Agonist EC50 Determination
T2 sequence (Q80SS6 1-329): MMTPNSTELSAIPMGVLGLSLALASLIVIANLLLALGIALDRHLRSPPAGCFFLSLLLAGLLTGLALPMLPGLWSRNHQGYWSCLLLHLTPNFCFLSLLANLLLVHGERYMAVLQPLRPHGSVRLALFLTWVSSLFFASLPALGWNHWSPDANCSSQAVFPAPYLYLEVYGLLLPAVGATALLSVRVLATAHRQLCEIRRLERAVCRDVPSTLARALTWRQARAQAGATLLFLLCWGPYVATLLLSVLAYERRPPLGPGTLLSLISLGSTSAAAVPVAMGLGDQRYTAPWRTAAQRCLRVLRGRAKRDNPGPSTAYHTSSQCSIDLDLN
Description: Cell stocks were maintained and grown in a sub-confluent state using standard cell culture procedures. The day before the experiment, the cells were harvested with non-enzymatic cell dissociation buffer and resuspended in complete growth media at 4E5 c/ml. […] The seeded plates were incubated overnight at 37° C.
On the day of the experiment, Assay Buffer containing: HBSS with Ca^2+and Mg^2+; 5 μM HEPES; 0.1% BSA; and, 0.5 μM IBMX was prepared. The growth medium was washed from the cell plates and replaced with 20 μL of Assay Buffer. […] The reaction was stopped by the addition of 20 μL 0.1% Formic Acid to all wells. Sixty minutes later 30 μL 3 M deuterated AMP was added to all wells (as a control for volume addition to the mass spec). Plates were mixed on a plate shaker for 1 min and centrifugated (5 min 3000 RPMs no brakes).
Plates were run on a 4000 QTrap triple-quadrapole Mass spectrometer in positive ion mode coupled with a Biocius RapidFire 300is. […] Two ions (cAMP and deuterated AMP were measured using Multiple Reaction Monitoring (MRM) in positive ion mode and the area under the curve (AUC) was determined for each of the ions.
The data from the Mass Spec/Rapid Plate AUC for cAMP and deuterated AMP were imported to an Excel worksheet. A Normalized signal (NS) was generated for each well=(cAMP AUC for the well/deut AMP AUC for the well)*average deut AMP AUC for the plate). nM cAMP was calculated for each well from the cAMP standard curves located on each plate by first calculating the slope and deriving the intercept (b).
EC50 values were determined from a 4-point fit (Hill equation) of a single 11-point compound dosing.

| EC50 [1] | EC50 [2] | Compound |
| --- | --- | --- |
| > 50000 nM | 3900 nM | COc1cc(C2(C)CCCc3nc(SCc4c(F)cc(-c5nn[nH]n5)cc4F)n(-c4ccc(F)cc4)c32)ccc1Cl (stereo not drawn) [Example 90, 7-(4-chloro-3-methoxyphenyl)-2-(2,6-difluoro-4-(2H-tetrazol-5-yl)benzylthio)-1-(4-fluorophenyl)-7-methyl-4,5,6,7-tetrahydro-1H-benzo[d]imidazole trifluoroacetic acid] |
| > 50000 nM | 230 nM | CNC(=O)c1cc(F)c(CSc2nc3c(n2-c2ccc(F)cc2)C(C)(c2ccc(Cl)c(OC)c2)CCC3)c(F)c1 (stereo not drawn) [Example 91, 4-((7-(4-chloro-3-methoxyphenyl)-1-(4-fluorophenyl)-7-methyl-4,5,6,7-tetrahydro-1H-benzo[d]imidazol-2-ylthio)methyl)-3,5-difluoro-N-methylbenzamide trifluoroacetic acid] |
| 18100 nM | 120 nM | COc1cc(C2(C)CCCc3nc(SCc4c(F)cc(C(=O)N(C)C)cc4F)n(-c4ccc(F)cc4)c32)ccc1Cl (stereo not drawn) [Example 92, 4-([[7-(4-chloro-3-methoxyphenyl)-1-(4-fluorophenyl)-7-methyl-4,5,6,7-tetrahydro-1H-1,3-benzodiazol-2-yl]sulfanyl]methyl)-3,5-difluoro-N,N-dimethylbenzamide] |
| > 50000 nM | 250 nM | COc1cc(C2(C)CCCc3nc(SCc4c(F)cc(C(=O)N5CCOCC5)cc4F)n(-c4ccc(F)cc4)c32)ccc1Cl (stereo not drawn) [Example 93, 7-(4-chloro-3-methoxyphenyl)-2-[([2,6-difluoro-4-[(morpholin-4-yl)carbonyl]phenyl]methyl)sulfanyl]-1-(4-fluorophenyl)-7-methyl-4,5,6,7-tetrahydro-1H-1,3-benzodiazole] |
| > 50000 nM | 410 nM | COc1cc(C2(C)CCCc3nc(SCc4c(F)cc(C(=O)NCCO)cc4F)n(-c4ccc(F)cc4)c32)ccc1Cl (stereo not drawn) [Example 94, 4-((7-(4-chloro-3-methoxyphenyl)-1-(4-fluorophenyl)-7-methyl-4,5,6,7-tetrahydro-1H-benzo[d]imidazol-2-ylthio)methyl)-3,5-difluoro-N-(2-hydroxyethyl)benzamide trifluoroacetic acid] |
| 12500 nM | 370 nM | COc1cc(C2(C)CCCc3nc(SCc4c(F)ccc(O)c4F)n(-c4ccc(F)cc4)c32)ccc1Cl (stereo not drawn) [Example 95, 3-((7-(4-chloro-3-methoxyphenyl)-1-(4-fluorophenyl)-7-methyl-4,5,6,7-tetrahydro-1H-benzo[d]imidazol-2-ylthio)methyl)-2,4-difluorophenol trifluoroacetic acid] |
| > 50000 nM | 13400 nM | COc1cc(C2(C)CCCc3nc(SCc4c(F)ccc(OCCN(C)C)c4F)n(-c4ccc(F)cc4)c32)ccc1Cl (stereo not drawn) [Example 96, 2-(3-((7-(4-chloro-3-methoxyphenyl)-1-(4-fluorophenyl)-7-methyl-4,5,6,7-tetrahydro-1H-benzo[d]imidazol-2-ylthio)methyl)-2,4-difluorophenoxy)-N,N-dimethylethanamine trifluoroacetic acid] |
| 24300 nM | 160 nM | COc1cc(C2(C)CCCc3nc(SCc4c(F)cncc4F)n(-c4ccc(F)cc4)c32)ccc1Cl (stereo not drawn) [Example 98, 2-((3,5-difluoropyridin-4-yl)methylthio)-7-(4-chloro-3-methoxyphenyl)-1-(4-fluorophenyl)-4,5,6,7-tetrahydro-7-methyl-1H-benzo[d]imidazole trifluoroacetic acid] |
| 33100 nM | 2390 nM | COc1ccc(C2(C)CCCc3nc(SCc4ccccc4)n(-c4ccc(F)cc4)c32)cc1OC (stereo not drawn) [Example 99, 2-(benzylthio)-7-(3,4-dimethoxyphenyl)-1-(4-fluorophenyl)-7-methyl-4,5,6,7-tetrahydro-1H-benzo[d]imidazole] |
| 1370 nM | 30 nM | COc1ccc(C2(C)CCCc3nc(SCc4c(F)cc(C#N)cc4F)n(-c4ccc(F)cc4)c32)cc1OC (stereo not drawn) [Example 102, 4-(((7-(3,4-dimethoxyphenyl)-1-(4-fluorophenyl)-7-methyl-4,5,6,7-tetrahydro-1H-benzo[d]imidazol-2-yl)thio)methyl)-3,5-difluorobenzonitrile] |
| 900 nM | 170 nM | COc1ccc(C2(C)CCCc3nc(SCc4c(F)cc(C(N)=O)cc4F)n(-c4ccc(F)cc4)c32)cc1OC (stereo not drawn) [Example 104, 4-(((7-(3,4-dimethoxyphenyl)-1-(4-fluorophenyl)-7-methyl-4,5,6,7-tetrahydro-1H-benzo[d]imidazol-2-yl)thio)methyl)-3,5-difluorobenzamide] |
| 1400 nM | 320 nM | COc1ccc(C2(C)CCCc3nc(SCc4c(F)cc(OCCCl)cc4F)n(-c4ccc(F)cc4)c32)cc1OC (stereo not drawn) [Example 107, 2-((4-(2-chloroethoxy)-2,6-difluorobenzyl)thio)-7-(3,4-dimethoxyphenyl)-1-(4-fluorophenyl)-7-methyl-4,5,6,7-tetrahydro-1H-benzo[d]imidazole] |
| 680 nM | 310 nM | COc1ccc(C2(C)CCCc3nc(SCc4c(F)cc(OCCN(C)C)cc4F)n(-c4ccc(F)cc4)c32)cc1OC (stereo not drawn) [Example 108, 2-(4-(((7-(3,4-dimethoxyphenyl)-1-(4-fluorophenyl)-7-methyl-4,5,6,7-tetrahydro-1H-benzo[d]imidazol-2-yl)thio)methyl)-3,5-difluorophenoxy)-N,N-dimethylethanamine] |
| 3600 nM | 200 nM | COc1ccc(C2(C)CCCc3nc(SCc4c(F)cc(Br)cc4F)n(-c4ccc(F)cc4)c32)cc1OC (stereo not drawn) [Example 109, 2-((4-bromo-2,6-difluorobenzyl)thio)-7-(3,4-dimethoxyphenyl)-1-(4-fluorophenyl)-7-methyl-4,5,6,7-tetrahydro-1H-benzo[d]imidazole] |
| 1180 nM | 450 nM | CCO/C=C/c1cc(F)c(CSc2nc3c(n2-c2ccc(F)cc2)C(C)(c2ccc(OC)c(OC)c2)CCC3)c(F)c1 (stereo not drawn) [Example 110, (E)-7-(3,4-dimethoxyphenyl)-2-((4-(2-ethoxyvinyl)-2,6-difluorobenzyl)thio)-1-(4-fluorophenyl)-7-methyl-4,5,6,7-tetrahydro-1H-benzo[d]imidazole] |
| 1410 nM | 200 nM | COc1ccc(C2(C)CCCc3nc(SCc4c(F)cc(CCN(C)C)cc4F)n(-c4ccc(F)cc4)c32)cc1OC (stereo not drawn) [Example 111, 2-(4-(((7-(3,4-dimethoxyphenyl)-1-(4-fluorophenyl)-7-methyl-4,5,6,7-tetrahydro-1H-benzo[d]imidazol-2-yl)thio)methyl)-3,5-difluorophenyl)-N,N-dimethylethanamine] |
| 300 nM | 130 nM | COc1ccc(C2(C)CCCc3nc(SCc4c(F)cc(CCN5CCOCC5)cc4F)n(-c4ccc(F)cc4)c32)cc1OC (stereo not drawn) [Example 112, 4-(4-(((7-(3,4-dimethoxyphenyl)-1-(4-fluorophenyl)-7-methyl-4,5,6,7-tetrahydro-1H-benzo[d]imidazol-2-yl)thio)methyl)-3,5-difluorophenethyl)morpholine] |
| 25700 nM | 1640 nM | COc1ccc(C2(C)CCCc3nc(SCc4c(Cl)cccc4Cl)n(-c4ccc(F)cc4)c32)cc1OC (stereo not drawn) [Example 114, 2-((2,6-dichlorobenzyl)thio)-7-(3,4-dimethoxyphenyl)-1-(4-fluorophenyl)-7-methyl-4,5,6,7-tetrahydro-1H-benzo[d]imidazole] |
